Legend:
Assay type in all cases: physicochemical
[1] = Absorption spectra (Soret and Q bands)
Protocol: (§1) Absorption spectra were recorded on a Beckman DU-64 spectrophotometer. Emission spectra (fluorescence and phosphorescence) were recorded using an AMINCO SPF-500C spectrofluorimeter. ^1H NMR spectra were recorded using a Brucker 300 MHz instrument. Phosphorescence lifetime measurements were performed using a light guide phosphorimeter designed by applicants. HPLC analysis of reaction mixtures was carried out on a SpectraPhysics 8800 gradient system, using an Adsorbosphere HS C4 100×4.6 mm column and methanol:water mixture as a mobile phase.

[2] = Phosphorescence lifetime at zero oxygen, light guide phosphorimeter
Excerpt: (§2) Solvents for phosphorescence measurements were degassed by three freeze-pump-thaw cycles and stored in a vacuum over sodium benzophenone ketyl (THF) or 4 Å molecular sieves (DMF). The solvents were vacuum transferred immediately prior to the phosphorescence measurements and samples were sealed under high vacuum.
(§3) An enzymatic system (glucose-glucose oxidase-catalase) was used for deoxygenation of aqueous solutions and N2-O2 gas mixtures containing either 2.89% of oxygen or 20% oxygen (air) were used for calibration and measurements of the quenching constants.
as §1

[3] = Quenching of phosphorescence by oxygen (Stern-Volmer quenching constant)
Excerpt: Phosphorescence of certain chemical compounds is quenched by oxygen according to the Stern-Volmer relationship which is stated as follows:
where T0 and T are the phosphorescence lifetimes in the absence of oxygen, PO2 is the oxygen pressure for a lifetime of T, and kQ is the quenching constant. The constant kQ is related to the frequency of collisions between the excited triplet state molecule and molecular oxygen and the probability of energy transfer occurring when these molecules collide.
as §3, §1

[4] = Phosphorescence spectra of deoxygenated samples; details: solvent THF, 25 °C
Protocol: as §2, §1
Phosphorescence of a series of metal-TBP compounds was detected using constant irradiation of samples with light wavelengths at their Q and Soret bands. To observe the phosphorescence phenomena and to record phosphorescence spectra, the samples were intensively deoxygenated. Accordingly, highly degassed dimethylformamide (DMF) or THF were used as solvents. The phosphorescence spectra of LuTPhTBP and PdTPhTBP are depicted in FIGS. 5 and 6, respectively.

[5] = Phy. sol. adjusted to pH 7.4, 38 °C
[6] = Phy. sol. (aqueous, pH 7.0), 38 °C
[7] = solvent DMF, TPhTNP compounds, average position of split Soret band
[8] = solvent DMF, TBP/TPhTBP compounds

c1ccc(C2=C3N=C(C(c4ccccc4)=c4c5ccccc5c5[n]4[Pb][n]4c2c2ccccc2c4C(c2ccccc2)=C2N=C(C=5c4ccccc4)c4ccccc42)c2ccccc23)cc1 [PbTPhTBP]
Q-band ([1]; solvent Acetone): 663 nm | Soret band ([1]; solvent Acetone): 487 nm

O=C(O)Cc1ccc(NS(=O)(=O)c2ccc(C3=C4N=C(C(c5ccc(S(=O)(=O)Nc6ccc(CC(=O)O)cc6)cc5)=c5c6ccccc6c6[n]5[Pd][n]5c3c3ccccc3c5C(c3ccc(S(=O)(=O)Nc5ccc(CC(=O)O)cc5)cc3)=C3N=C(C=6c5ccc(S(=O)(=O)Nc6ccc(CC(=O)O)cc6)cc5)c5ccccc53)c3ccccc34)cc2)cc1 [PdTPhTBP (sulfonamide)4]
Q-band ([1]; solvent water): 630 nm | Soret band ([1]; solvent water): 415 nm | Phosphorescent lifetime at zero-oxygen concentration [2, 5]: 377 μs | Quenching constant at a temperature of 38° C. [3, 5]: 185 Torr^−1s^−1

lutetium (Lu) tetraphenyltetranaphthoporphyrin [LuTPhTNP]
Phosphorescent lifetime at zero-oxygen concentration ([2]; solvent DMF, 25 °C): 172 μs

O=S(=O)(N[C@H]1C(O)O[C@H](CO)[C@@H](O)[C@@H]1O)c1ccc(C2=C3N=C(C(c4ccc(S(=O)(=O)N[C@H]5C(O)O[C@H](CO)[C@@H](O)[C@@H]5O)cc4)=c4c5ccccc5c5[n]4[Pd][n]4c2c2ccccc2c4C(c2ccc(S(=O)(=O)N[C@H]4C(O)O[C@H](CO)[C@@H](O)[C@@H]4O)cc2)=C2N=C(C=5c4ccc(S(=O)(=O)N[C@H]5C(O)O[C@H](CO)[C@@H](O)[C@@H]5O)cc4)c4ccccc42)c2ccccc23)cc1 (stereo partly drawn) [PdTPhTBP (glucosamine)4]
Q-band ([1]; solvent water): 615 nm | Soret band ([1]; solvent water): 409 nm | Phosphorescent lifetime at zero-oxygen concentration [2, 6]: 431 μs | Quenching constant at a temperature of 38° C. [3, 6]: 194 Torr^−1s^−1

c1ccc(C2=C3N=C(C(c4ccccc4)=c4c5ccccc5c5[n]4[Pd][n]4c2c2ccccc2c4C(c2ccccc2)=C2N=C(C=5c4ccccc4)c4ccccc42)c2ccccc23)cc1 [PdTPhTBP, palladium meso-tetraphenyltetrabenzoporphyrin]
Q-band ([1]; solvent CHCl3): 610 nm | Soret band ([1]; solvent CHCl3): 420 nm | Phosphorescence maximum [4]: 784 nm | Phosphorescent lifetime at zero-oxygen concentration ([2]; solvent THF, 25 °C): 127 μs

[OH][Lu]1[n]2c3c4cc5ccccc5cc4c2C(c2ccccc2)=C2N=C(C(c4ccccc4)=c4c5cc6ccccc6cc5c([n]41)=C(c1ccccc1)C1=NC(=C3c3ccccc3)c3cc4ccccc4cc31)c1cc3ccccc3cc12 [Lu(OH)TPhTNP]
Q-band ([1]; solvent DMF): 709 nm | Soret band [1, 7]: 440 nm

[OH][La]1[n]2c3c4cc5ccccc5cc4c2C(c2ccccc2)=C2N=C(C(c4ccccc4)=c4c5cc6ccccc6cc5c([n]41)=C(c1ccccc1)C1=NC(=C3c3ccccc3)c3cc4ccccc4cc31)c1cc3ccccc3cc12 [La(OH)TPhTNP]
Q-band ([1]; solvent DMF): 708 nm | Soret band [1, 7]: 440 nm

[OH][La]1[n]2c3c4ccccc4c2C(c2ccccc2)=C2N=C(C(c4ccccc4)=c4c5ccccc5c([n]41)=C(c1ccccc1)C1=NC(=C3c3ccccc3)c3ccccc31)c1ccccc12 [La(OH)TPhTBP]
Q-band ([1]; solvent DMF): 633 nm | Soret band [1, 8]: 432 nm

c1ccc(C2=C3N=C(C(c4ccccc4)=c4c5cc6ccccc6cc5c5[n]4[Pd][n]4c2c2cc6ccccc6cc2c4C(c2ccccc2)=C2N=C(C=5c4ccccc4)c4cc5ccccc5cc42)c2cc4ccccc4cc23)cc1 [PdTPhTNP]
Q-band ([1]; solvent DMF): 694 nm | Soret band [1, 7]: 415 nm | Phosphorescent lifetime at zero-oxygen concentration ([2]; solvent THF, 25 °C): 165 μs

c1ccc(C2=C3N=C(C(c4ccccc4)=c4c5ccccc5c5[n]4[Sn][n]4c2c2ccccc2c4C(c2ccccc2)=C2N=C(C=5c4ccccc4)c4ccccc42)c2ccccc23)cc1 [SnTPhTBP]
Q-band ([1]; solvent Acetone): 642 nm | Soret band ([1]; solvent Acetone): 438 nm

[OH][Lu]1[n]2c3c4ccccc4c2C(c2ccccc2)=C2N=C(C(c4ccccc4)=c4c5ccccc5c([n]41)=C(c1ccccc1)C1=NC(=C3c3ccccc3)c3ccccc31)c1ccccc12 [Lu(OH)TPhTBP, lutetium (hydroxy) meso-tetraphenyltetrabenzoporphyrin]
Q-band ([1]; solvent Acetone): 628 nm | Soret band ([1]; solvent Acetone): 423 nm

c1ccc(C2=C3N=C(C(c4ccccc4)=c4c5ccccc5c5[n]4[Zn][n]4c2c2ccccc2c4C(c2ccccc2)=C2N=C(C=5c4ccccc4)c4ccccc42)c2ccccc23)cc1.c1ccncc1.c1ccncc1 [ZnTPhTBP (Pyridine)2]
Q-band ([1]; solvent Acetone): 625 nm | Soret band ([1]; solvent Acetone): 428 nm

c1ccc(C2=C3N=C(C(c4ccccc4)=c4c5cc6ccccc6cc5c5[n]4[Pt][n]4c2c2cc6ccccc6cc2c4C(c2ccccc2)=C2N=C(C=5c4ccccc4)c4cc5ccccc5cc42)c2cc4ccccc4cc23)cc1 [PtTPhTNP]
Q-band ([1]; solvent DMF): 700 nm | Soret band [1, 7]: 425 nm

O=C(O)CNS(=O)(=O)c1ccc(C2=C3N=C(C(c4ccc(S(=O)(=O)NCC(=O)O)cc4)=c4c5ccccc5c5[n]4[Pd][n]4c2c2ccccc2c4C(c2ccc(S(=O)(=O)NCC(=O)O)cc2)=C2N=C(C=5c4ccc(S(=O)(=O)NCC(=O)O)cc4)c4ccccc42)c2ccccc23)cc1 [PdTPhTBP (glyc)4]
Q-band ([1]; solvent water): 620 nm | Soret band ([1]; solvent water): 421 nm | Phosphorescent lifetime at zero-oxygen concentration [2, 6]: 408 μs | Quenching constant at a temperature of 38° C. [3, 6]: 186 Torr^−1s^−1

[Zn].c1ccc2c(c1)-c1cc3[nH]c(cc4nc(cc5[nH]c(cc-2n1)c1ccccc51)-c1ccccc1-4)c1ccccc31 [ZnTBP (Pyridine)2, zinc tetrabenzoporphyrin]
Q-band ([1]; solvent DMF): 624 nm | Soret band [1, 8]: 425 nm

[OH][Y]1[n]2c3c4ccccc4c2C(c2ccccc2)=C2N=C(C(c4ccccc4)=c4c5ccccc5c([n]41)=C(c1ccccc1)C1=NC(=C3c3ccccc3)c3ccccc31)c1ccccc12 [Y(OH)TPhTBP]
Q-band ([1]; solvent Acetone): 630 nm | Soret band ([1]; solvent Acetone): 431 nm

c1ccc(C2=C3N=C(C(c4ccccc4)=c4c5ccccc5c5[n]4[Pt][n]4c2c2ccccc2c4C(c2ccccc2)=C2N=C(C=5c4ccccc4)c4ccccc42)c2ccccc23)cc1 [PtTPhTBP]
Q-band ([1]; solvent DMF): 630 nm | Soret band [1, 8]: 437 nm

From US6362175B1, “Porphyrin compounds for imaging tissue oxygen” (The Trustees of the University of Pennsylvania, priority 1991, dated 2002)
